Measured values published in US20100035932A1, “NOVEL FORMYL PEPTIDE RECEPTOR LIKE 1 AGONISTS THAT INDUCE MACROPHAGE TUMOR NECROSIS FACTOR ALPHA AND COMPUTATIONAL STRUCTURE-ACTIVITY RELATIONSHIP ANALYSIS OF THEREOF” (priority 2008, published 2010).
Like-named read-outs stand apart in the source and are kept apart here.

Experiments:
J774.A1 macrophages [1] = assay: ROS production in J774.A1 macrophages (L-012 luminescence); type: cell-based; details: Mus musculus, concentration that enhanced ROS production by 50% above background, read-out: ROS Production AC50, Murine Mφ
Description: (§1) Murine macrophage J774.A1 cells were cultured in DMEM supplemented with 10% (v/v) heat-inactivated fetal bovine serum (FBS), 10 mM HEPES, 100 μg/ml streptomycin, and 100 U/ml penicillin. Cells were grown to confluence in sterile tissue culture flasks and gently detached by scraping. Human monocyte/macrophage MonoMac6 cells (DSMZ, Germany) were cultured in RPMI 1640 supplemented with 10% (v/v) FBS, 10 μg/ml bovine insulin, 100 μg/ml streptomycin, and 100 U/ml penicillin. Rat basophilic leukemia (RBL-2H3) cells transfected with human FPR (RBL-FPR) or FPRL1 (RBL-FPRL1) were cultured in DMEM supplemented with 20% (v/v) FBS, 10 mM HEPES, 100 μg/ml streptomycin, and 100 U/ml penicillin, as described previously (Nanamori et al., 2004). Human monocytic THP-1 cells were cultured in RPMI 1640 medium supplemented with 10% (v/v) FBS, 100 μg/ml streptomycin, and 100 U/ml penicillin. All cell cultures were grown at 37° C. in a humidified atmosphere containing 5% CO2. Cell number and viability were assessed microscopically using trypan blue exclusion.
J774.A1 macrophages were plated at density of 1.5×10^5 cells/well in wells of 96-well flat-bottom white microtiter plates (Corning Incorporated, Costar). […] After 5 min, the media was replaced by HBSS+ containing 4 μM L-012 and 8 μg/ml HRP, and luminescence was monitored for 120 min (2-min intervals) at 37° C. using a Fluoroscan Ascent FL microtiter plate reader (Thermo Electron, Waltham, Mass.). The curve of light intensity (in relative luminescence units) was plotted against time, and the area under the curve was calculated as total luminescence. The percent activation of ROS was calculated as follows: % activation=(sample-DMSO control)/DMSO control×100. The minimal compound concentration that enhanced ROS production by 50% above background control cells (AC50) was determined by graphing the % activation of ROS vs. log [test compound]. Each curve was determined using five to seven compound concentrations. […] The results were analysed as described above to determine % activation and AC50 values.

FPRL1 = target: T1, FPRL1 (Homo sapiens, UniProt P25090); assay: Ca2+ mobilization in RBL-FPRL1 cells; type: cell-based
T1 construct: expressed in transfected cells; host or cells: rat basophilic leukemia RBL-2H3 cells (RBL-FPRL1)
T1 sequence (P25090 1-351): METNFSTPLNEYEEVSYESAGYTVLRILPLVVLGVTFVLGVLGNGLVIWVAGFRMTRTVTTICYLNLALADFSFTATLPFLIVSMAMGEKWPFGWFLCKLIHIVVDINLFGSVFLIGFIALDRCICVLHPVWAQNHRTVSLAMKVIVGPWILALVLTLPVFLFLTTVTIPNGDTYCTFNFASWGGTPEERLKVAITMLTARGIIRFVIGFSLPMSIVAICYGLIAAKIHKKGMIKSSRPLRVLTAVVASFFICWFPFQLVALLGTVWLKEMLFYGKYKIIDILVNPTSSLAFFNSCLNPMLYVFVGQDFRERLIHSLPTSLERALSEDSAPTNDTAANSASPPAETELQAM

J774.A1 macrophages [2] = assay: IL-6 production in J774.A1 macrophages (ELISA); type: cell-based, murine; details: J774.A1, 24 hr
Description: (§2) Cells were treated for 24 hr with DMSO control, test compound, or LPS and mouse TNF-α or IL-6 and human TNF-α enzyme-linked immunosorbent assay (ELISA) kits (BD Biosciences Pharmigen) were used to detect these cytokines in the cell supernatants. Cytokine concentration was determined by extrapolation from the TNF-α/IL-6 standard curve, according to the manufacturer's protocol.
(§3) For treatments, cells were plated in 96-well microtiter plates at 2×10^5 cells/well (J774.A1, MonoMac6) or 6×10^4 cells/well (human monocyte-derived macrophages) using their respective culture media, except FBS was reduced to 3% (v/v). After incubation overnight (5% CO2, 37° C.), the media were removed and replaced with fresh media containing test compounds.

J774.A1 macrophages [3] = assay: cells; details: Mus musculus, J774.A1, read-out: Ca2+ Mobilization EC50, Murine Mφ
Description: Murine macrophage J774.A1 cells were cultured in DMEM supplemented with 10% (v/v) heat-inactivated fetal bovine serum (FBS), 10 mM HEPES, 100 μg/ml streptomycin, and 100 U/ml penicillin. Cells were grown to confluence in sterile tissue culture flasks and gently detached by scraping. […] All cell cultures were grown at 37° C. in a humidified atmosphere containing 5% CO2. Cell number and viability were assessed microscopically using trypan blue exclusion.

murine neutrophils = assay: Chemotaxis assay, murine neutrophils; type: cell-based; details: percent of response induced by 50 nM KC
[4] = test system: human monocytic cells THP-1; assay: TNF-α production in THP-1 cells (ELISA); type: cell-based; details: 24 hr, various concentrations
Description: as §1, with “All cell cultures were grown at 37° C. in a humidified atmosphere containing 5% CO2.” left out
as §2

human neutrophils [5] = assay: Ca2+ mobilization in human neutrophils (FLIPR Calcium 3); details: Neutrophil
[6] = test system: human MonoMac6 macrophages; assay: TNF-α production in MonoMac6 cells (ELISA); type: cell-based; details: 24 hr, various concentrations
J774.A1 cells = assay: Cytotoxicity assay (CellTiter-Glo); type: cell-based, murine; details: J774.A1, 24 hr
Description: Cytotoxicity was analyzed with a CellTiter-Glo Luminescent Cell Viability Assay Kit (Promega, Inc., Madison, Wis.), according to the manufacturer's protocol. Briefly, J774.A1 cells were cultured at a density of 3×10^4 cells/well with the test compounds for 24 hr at 37° C. and 5% CO2, substrate was added, and luminescence signal in the samples was analyzed with a Fluoroscan Ascent FL.

human neutrophils [7] = assay: ROS production in human neutrophils (L-012 luminescence); type: cell-based; details: Neutrophil, concentration that enhanced ROS production by 50% above background, read-out: ROS Production AC50, Human PMN
Description: J774.A1 macrophages were plated at density of 1.5×10^5 cells/well in wells of 96-well flat-bottom white microtiter plates (Corning Incorporated, Costar). After 16 hr (5% CO2, 37° C.), the media was aspirated, and test compounds or vehicle (final DMSO concentration of 1%) were added in fresh media (DMEM without phenol red, supplemented with 3% (v/v) FBS). After 5 min, the media was replaced by HBSS+ containing 4 μM L-012 and 8 μg/ml HRP, and luminescence was monitored for 120 min (2-min intervals) at 37° C. using a Fluoroscan Ascent FL microtiter plate reader (Thermo Electron, Waltham, Mass.). The curve of light intensity (in relative luminescence units) was plotted against time, and the area under the curve was calculated as total luminescence. The percent activation of ROS was calculated as follows: % activation=(sample-DMSO control)/DMSO control×100. The minimal compound concentration that enhanced ROS production by 50% above background control cells (AC50) was determined by graphing the % activation of ROS vs. log [test compound]. Each curve was determined using five to seven compound concentrations. Human neutrophils were plated at density of 5×10^5 cells/well in wells of 96-well flatbottom white microtiter plates, and compounds under investigation or vehicle (final DMSO concentration of 1%) were added. After 5 min, the media was replaced by HBSS+ containing […] L-012, and luminescence was monitored for 120 min (2-min intervals) at 37° C. using a Fluoroscan Ascent FL microtiter plate reader. The results were analysed as described above to determine % activation and AC50 values.

[8] = test system: human monocyte-derived macrophages; assay: TNF-α production in human monocyte-derived macrophages (ELISA); type: cell-based; details: 24 hr, various concentrations
Description: as §2, §3

J774.A1 macrophages [9] = assay: TNF-α production in J774.A1 macrophages (ELISA); type: cell-based, murine; details: for fold induction at 50 µM: Mus musculus, J774.A1, 24 h; for Effect of Boc-2 (FPR/FPRL1 antagonist) on compound-induced TNF-α production: pretreated 5 min with Boc 2 (40 μM); for Effect of Boc-2 (FPR/FPRL1 antagonist) on compound-induced TNF-α production / Effect of WRW4 (FPRL1 antagonist) on compound-induced TNF-α production: then 50 μM compound 24 hr; for Effect of WRW4 (FPRL1 antagonist) on compound-induced TNF-α production: pretreated 5 min with WRW4 (10 μM); for Effect of PTX on induced TNF-α production: pretreated 30 min with PTX (0.4 and 1 μg/ml), then Compound 50 μM or LPS 50 ng/ml for 12 hr; for Effect of ActD or CHX on compound-induced TNF-α production: pretreated with ActD 1 μg/ml or CHX 5 μg/ml 30 min, then 50 μM compound 12 hr
human neutrophils [10] = assay: Chemotaxis assay, human neutrophils; type: cell-based; details: percent of response induced by 50 nM IL-8
[11] = test system: murine peritoneal macrophages; assay: TNF-α production in murine peritoneal macrophages (ELISA); type: cell-based; details: 24 hr, various concentrations
Description: Bone marrow leukocytes were flushed from tibias and femurs of BALB/c mice with HBSS− supplemented with 0.1% BSA and 1% glucose and the neutrophils were purified on Percoll density gradients, as previously described (Schepetkin et al., 2007). Peritoneal macrophages were isolated from BALB/c mice 4 days after intraperitoneal injection of 1 ml saline containing 100 μg concanavalin A, as described previously (Schepetkin et al., 2005). Peritoneal exudate cells were suspended in RPMI 1640 containing 10% (v/v) FBS with antibiotics (penicillin and streptomycin) and incubated at 37° C. in 100 mm tissue culture dishes for 1 h. Adherent peritoneal macrophages were harvested and cultured with the compounds under investigation for 24 hr at 37° C. and 5% CO2.
as §2

human FPR = target: T2, human FPR (Homo sapiens, UniProt P21462); assay: Ca2+ mobilization in RBL-FPR cells; type: cell-based
T2 construct: expressed in transfected cells; host or cells: rat basophilic leukemia RBL-2H3 cells (RBL-FPR)
T2 sequence (P21462 1-350): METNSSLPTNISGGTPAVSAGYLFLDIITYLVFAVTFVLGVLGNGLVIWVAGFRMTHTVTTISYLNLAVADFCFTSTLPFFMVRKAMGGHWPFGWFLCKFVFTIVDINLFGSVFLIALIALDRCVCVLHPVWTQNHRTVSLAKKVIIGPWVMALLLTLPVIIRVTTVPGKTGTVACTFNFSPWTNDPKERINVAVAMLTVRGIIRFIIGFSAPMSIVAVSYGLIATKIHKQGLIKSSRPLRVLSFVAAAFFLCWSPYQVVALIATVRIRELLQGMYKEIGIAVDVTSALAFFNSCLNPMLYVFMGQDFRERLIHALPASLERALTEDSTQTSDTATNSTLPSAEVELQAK

[12] = read-out: Ca2+ Mobilization EC50, Human PMN
[13] = relative fold of activation compared to vehicle (DMSO) control for 50 μM compound, N.A. = no activity was observed, read-out: TNF-α production

| SMILES | AC50 (J774.A1 macrophages [1]) [µM] | EC50 (FPRL1) [µM] | IL-6 production (J774.A1 macrophages [2]) | EC50 (J774.A1 macrophages [3]) [µM] | Chemotaxis (%), Murine PMN (murine neutrophils) [%] | TNF-α production in THP-1 cells [4] | EC50 (human neutrophils [5]; [12]) [µM] | EC50 (human neutrophils [5]; read-out: [Ca2+]i EC50) [µM] | TNF-α production in MonoMac6 cells [6] | Effect on cell viability (J774.A1 cells) | AC50 (human neutrophils [7]) [µM] | TNF-α production in human monocyte-derived macrophages [8] | fold induction at 50 µM (J774.A1 macrophages [9]; [13]) | Effect of Boc-2 (FPR/FPRL1 antagonist) on compound-induced TNF-α production (J774.A1 macrophages [9]) | Effect of WRW4 (FPRL1 antagonist) on compound-induced TNF-α production (J774.A1 macrophages [9]) | Effect of PTX on induced TNF-α production (J774.A1 macrophages [9]) | Effect of ActD or CHX on compound-induced TNF-α production (J774.A1 macrophages [9]) | Chemotaxis (%), Human PMN (human neutrophils [10]) [%] | TNF-α production in murine peritoneal macrophages [11] | other results |
| --- | --- | --- | --- | --- | --- | --- | --- | --- | --- | --- | --- | --- | --- | --- | --- | --- | --- | --- | --- | --- |
| O=C(N/N=C/c1ccc(-c2cccc(Br)c2)o1)c1cccnc1 [Compound 1] | 25.4 ± 4 | 19.1 | induced secretion of IL-6 | 24.1 ± 4.1 | 68.9 ± 7.8 | induced TNF-α production in a concentration-dependent manner | 0.3 ± 0.2 | 0.3 | induced TNF-α production in a concentration-dependent manner | had no effect on cell viability | 0.2 ± 0.02 | induced TNF-α production in a concentration-dependent manner | 40 to 50 | inhibited | inhibited | significantly inhibited | completely inhibited | 67.8 ± 9.4 | induced TNF-α production in a concentration-dependent manner | fold induction at 50 µM (J774.A1 macrophages [9]; 50 μM compound, above response to vehicle (DMSO) control, Table 5 numbering, N.A. = inactive, read-out: FI (fold-increase of macrophage TNF-α production)): 50; Determined class of macrophage TNF-α inducing activity (J774.A1 macrophages [9]; experimentally determined class): Active |
| O=C(N/N=C/c1ccc(-c2cccc(C(F)(F)F)c2)o1)c1ccc(F)cc1 [Compound 2, 4-fluoro-benzoic acid [5-(3-trifluoromethyl-phenyl)-2-furyl]methylene-hydrazide] | 8.6 ± 2.7 | 18.3 | induced secretion of IL-6 | 2.3 ± 0.15 | 58.0 ± 1.4 | induced TNF-α production in a concentration-dependent manner | 0.6 ± 0.4 | 0.6 | induced TNF-α production in a concentration-dependent manner | had no effect on cell viability | 0.2 ± 0.04 | induced TNF-α production in a concentration-dependent manner | 30 to 40 | inhibited | inhibited | significantly inhibited | completely inhibited | 91.3 ± 1.6 | induced TNF-α production in a concentration-dependent manner | – |
| COc1cc(/C=N\NC(=O)c2ccc3c(c2)OCO3)ccc1OCc1ccccc1 [Compound 6] | 26.9 ± 3.9 | – | failed to induce macrophage IL-6 production | 4.2 ± 0.8 | 174.8 ± 9.2 | – | 0.63 ± 0.39 | 0.63 | – | – | 38.6 ± 3.3 | – | 5 to 8 | – | – | – | – | 98.0 ± 3.4 | – | EC50 (human FPR): 6.6 µM; TNF-α production, primary screening of agonists AG 1-26 (J774.A1 macrophages [9]; murine J774.A1 macrophages): induced modest levels of TNF-α production |
